In data set [1] the test system is Rattus norvegicus. Briefly: Anti-inflammatory activity in Rattus norvegicus Wistar (rat) assessed as inhibition of carrageenan-induced edema volume at 69.6 mg/kg, po measured after 90 min. Conditions: 1.5 h. Type of data set: functional. Background: Carrageenan injected into the paw causes an acute inflammation.
In data set [2] the test system is Rattus norvegicus. Briefly: Anti-inflammatory activity in Rattus norvegicus Wistar (rat) assessed as inhibition of carrageenan-induced edema volume at 69.6 mg/kg, po measured after 30 min. In kind it is functional. Conditions: 0.5 h.
Data set [3] deals with Rattus norvegicus. Description: Anti-inflammatory activity in Rattus norvegicus Wistar (rat) assessed as inhibition of carrageenan-induced edema volume at 69.6 mg/kg, po measured after 60 min. In kind it is functional. Conditions: 1 h.
Data set [4] relates to Rattus norvegicus. Description: Anti-inflammatory activity in Rattus norvegicus Wistar (rat) assessed as inhibition of carrageenan-induced edema volume at 69.6 mg/kg, po measured after 120 min. In kind it is functional. The note with it: 2 h.
The test system of data set [5] is Mus musculus. Description: Analgesic activity in Mus musculus (mouse) assessed as inhibition of acetic acid-induced writhing at 69.6 mg/kg, po pretreated 1 hr before acetic acid challenge. In kind it is functional.
Data set [6] is described as follows: Prodrug conversion in phosphate buffer assessed as half-life for hydrolysis at pH 7.4. Type of data set: physicochemical.
Data set [7] relates to Rattus norvegicus. Briefly: Anti-inflammatory activity in Rattus norvegicus Wistar (rat) assessed as inhibition of carrageenan-induced edema volume at 69.4 mg/kg, po measured after 120 min. In kind it is functional. Conditions: 2 h.
Data set [8] relates to Rattus norvegicus. Description: Anti-inflammatory activity in Rattus norvegicus Wistar (rat) assessed as inhibition of carrageenan-induced edema volume at 69.4 mg/kg, po measured after 60 min. Type of data set: functional. Conditions: 1 h.
In data set [9] the test system is Mus musculus. Description: Analgesic activity in Mus musculus (mouse) assessed as inhibition of acetic acid-induced writhing at 69.4 mg/kg, po pretreated 1 hr before acetic acid challenge. Type of data set: functional. Background: An intraperitoneal irritant provokes the stretching counted in writhing tests.
A short description of data set [10]: Prodrug conversion in acetate buffer assessed as half-life for hydrolysis at pH 4. In kind it is physicochemical.
For data set [11], the system named is Rattus norvegicus. Description: Anti-inflammatory activity in Rattus norvegicus Wistar (rat) assessed as inhibition of carrageenan-induced edema volume at 69.4 mg/kg, po measured after 30 min. Type of data set: functional. Conditions: 0.5 h.
The nature of data set [12]: Prodrug conversion in acetate buffer assessed as half-life for hydrolysis at pH 3. Type of data set: physicochemical.
Data set [13] is described as follows: Prodrug conversion in acetate buffer assessed as half-life for hydrolysis at pH 5. Type of data set: physicochemical.
For data set [14], the system named is Rattus norvegicus. Description: Anti-inflammatory activity in Rattus norvegicus Wistar (rat) assessed as inhibition of carrageenan-induced edema volume at 69.4 mg/kg, po measured after 90 min. In kind it is functional. Conditions: 1.5 h.
The subject of data set [15] is Rattus norvegicus. Briefly: Anti-inflammatory activity in Rattus norvegicus Wistar (rat) assessed as inhibition of carrageenan-induced edema volume at 68.9 mg/kg, po measured after 90 min. Conditions: 1.5 h. In kind it is functional.
For data set [16], the system named is Mus musculus. Briefly: Analgesic activity in Mus musculus (mouse) assessed as inhibition of acetic acid-induced writhing at 68.9 mg/kg, po pretreated 1 hr before acetic acid challenge. In kind it is functional.
The test system of data set [17] is Rattus norvegicus. Description: Anti-inflammatory activity in Rattus norvegicus Wistar (rat) assessed as inhibition of carrageenan-induced edema volume at 68.9 mg/kg, po measured after 30 min. Type of data set: functional. The note with it: 0.5 h.
Data set [18] deals with Rattus norvegicus. Description: Anti-inflammatory activity in Rattus norvegicus Wistar (rat) assessed as inhibition of carrageenan-induced edema volume at 68.9 mg/kg, po measured after 120 min. In kind it is functional. The note with it: 2 h.
The test system of data set [19] is Rattus norvegicus. Description: Anti-inflammatory activity in Rattus norvegicus Wistar (rat) assessed as inhibition of carrageenan-induced edema volume at 68.9 mg/kg, po measured after 60 min. Type of data set: functional. Conditions: 1 h.
Data set [20] relates to Mus musculus. Description: Analgesic activity in Mus musculus (mouse) assessed as inhibition of acetic acid-induced writhing at 67.6 mg/kg, po pretreated 1 hr before acetic acid challenge. In kind it is functional.
The test system of data set [21] is Rattus norvegicus. Description: Anti-inflammatory activity in Rattus norvegicus Wistar (rat) assessed as inhibition of carrageenan-induced edema volume at 67.6 mg/kg, po measured after 120 min. In kind it is functional. Conditions: 2 h.
The subject of data set [22] is Rattus norvegicus. Briefly: Anti-inflammatory activity in Rattus norvegicus Wistar (rat) assessed as inhibition of carrageenan-induced edema volume at 67.6 mg/kg, po measured after 60 min. In kind it is functional. The note with it: 1 h.
Data set [23] deals with Rattus norvegicus. Briefly: Anti-inflammatory activity in Rattus norvegicus Wistar (rat) assessed as inhibition of carrageenan-induced edema volume at 67.6 mg/kg, po measured after 90 min. Type of data set: functional. The note with it: 1.5 h.
Data set [24] deals with Rattus norvegicus. Briefly: Anti-inflammatory activity in Rattus norvegicus Wistar (rat) assessed as inhibition of carrageenan-induced edema volume at 67.6 mg/kg, po measured after 30 min. In kind it is functional. The note with it: 0.5 h.
Data set [25] has as its system Rattus norvegicus. Description: Anti-inflammatory activity in Rattus norvegicus Wistar (rat) assessed as inhibition of carrageenan-induced edema volume at 67.8 mg/kg, po measured after 90 min. Type of data set: functional. The note with it: 1.5 h.
The subject of data set [26] is Mus musculus. Briefly: Analgesic activity in Mus musculus (mouse) assessed as inhibition of acetic acid-induced writhing at 67.8 mg/kg, po pretreated 1 hr before acetic acid challenge. In kind it is functional.
The test system of data set [27] is Rattus norvegicus. Description: Anti-inflammatory activity in Rattus norvegicus Wistar (rat) assessed as inhibition of carrageenan-induced edema volume at 67.8 mg/kg, po measured after 30 min. In kind it is functional. The note with it: 0.5 h.
The test system of data set [28] is Rattus norvegicus. Description: Anti-inflammatory activity in Rattus norvegicus Wistar (rat) assessed as inhibition of carrageenan-induced edema volume at 67.8 mg/kg, po measured after 120 min. Type of data set: functional. The note with it: 2 h.
Data set [29] deals with Rattus norvegicus. Description: Anti-inflammatory activity in Rattus norvegicus Wistar (rat) assessed as inhibition of carrageenan-induced edema volume at 67.8 mg/kg, po measured after 60 min. In kind it is functional. The note with it: 1 h.

SMILES strings stand for the structures.

As a reminder, the inhibition in vivo is the relative decrease from the control value, in per cent.

As for `COc1ccc2cc(C(C)C(=O)OCC(OC(C)=O)C(OC(C)=O)C(OC(C)=O)C(/C=N/[C@@H](Cc3ccc(O)c(O)c3)C(=O)O)OC(C)=O)ccc2c1` (some centres undefined), the inhibition in vivo at 69.6 mg/kg was determined as 50% in data set [1]; 44% in [2]; 41% in data set [3]; 73% in data set [4]; 92.3% in data set [5].

As to `COc1ccc2cc(C(C)C(=O)OCC(OC(C)=O)C(OC(C)=O)C(OC(C)=O)C(/C=N/[C@@H](Cc3ccc(O)cc3)C(=O)O)OC(C)=O)ccc2c1` (some centres undefined), the t1/2 came to 18 h in [6], 67 h in [10], 22 h in [12] and 50 h in data set [13]. Further, the inhibition in vivo at 69.4 mg/kg in data set [7] turned out to be 67%; in [8], 25%; in data set [9] it was 82%; in [11], 60%; in data set [14] it was 47%.

For `COc1ccc2cc(C(C)C(=O)OCC(OC(C)=O)C(OC(C)=O)C(OC(C)=O)C(/C=N/[C@@H](CCC(=O)O)C(=O)O)OC(C)=O)ccc2c1` (some centres undefined), the inhibition in vivo at 68.9 mg/kg in data set [15] worked out at 53%; in [16], 64.1%; in data set [17], 32%; in data set [18], 66%; in [19], 32%.

Take `COc1ccc2cc(C(C)C(=O)OCC(OC(C)=O)C(OC(C)=O)C(OC(C)=O)C(/C=N/[C@@H](CC(=O)O)C(=O)O)OC(C)=O)ccc2c1` (some centres undefined): the inhibition in vivo at 67.6 mg/kg was found to be 75.1% in [20]; 45% in [21]; 1% in data set [22]; 28% in data set [23]; 20% in [24].

As for `COc1ccc2cc(C(C)C(=O)OCC(OC(C)=O)C(OC(C)=O)C(OC(C)=O)C(/C=N/[C@@H](Cc3ccccc3)C(=O)O)OC(C)=O)ccc2c1` (some centres undefined), the inhibition in vivo at 67.8 mg/kg came out at 47% in data set [25]; 91.2% in data set [26]; 22% in data set [27]; 69% in data set [28]; 13% in [29].
